# Measurements published in patent US8735414B2 (priority 2009, dated 2014).
# Assays:
# [1] = test system: bicistronic HCV replicon (replicon RNA, GenBank Accession No. AJ242654); assay: HCV Replicon Assay; format: cell-based; details: Hepatitis C virus, 72 h, read-out: Replicon IC50
Structure (SMILES),IC50 [1],melting point
"Cc1cc2c(cc1F)c(C#N)c(-c1ccc(S(=O)(=O)NC(CF)CF)cn1)n2-c1ccccn1 [compound 540, 6-[3-cyano-5-fluoro-6-methyl-1-(pyridin-2-yl)-1H-indol-2-yl]-N-(1,3-difluoropropan-2-yl)pyridine-3-sulfonamide]",< 500 nM,233 to 236 °C
"Cc1ccc2c(C#N)c(-c3ncc(S(=O)(=O)N[C@@H](C)C(F)(F)F)cn3)n(C(C)C)c2c1 [compound 403, 2-[3-cyano-6-methyl-1-(propan-2-yl)-1H-indol-2-yl]-N-[(2S)-1,1,1-trifluoropropan-2-yl]pyrimidine-5-sulfonamide]",500 to 2000 nM,235 to 236 °C
"COc1ccc2c(c1)c(C#N)c(-c1ccc(S(=O)(=O)NC(CF)CF)cn1)n2C1CCC1 [compound 550, 6-(3-cyano-1-cyclobutyl-5-methoxy-1H-indol-2-yl)-N-(1,3-difluoropropan-2-yl)pyridine-3-sulfonamide]",< 500 nM,149 to 150 °C
"N#Cc1c(-c2ccc(S(=O)(=O)NC(CF)CF)cn2)n(C2CCCC2)c2cc(OC(F)F)ccc12 [compound 49, 6-[3-cyano-1-cyclopentyl-6-(difluoromethoxy)-1H-indol-2-yl]-N-(1,3-difluoropropan-2-yl)pyridine-3-sulfonamide]",< 500 nM,177 to 178 °C
"CC[C@H](NS(=O)(=O)c1ccc(-c2c(C#N)c3cc(F)c(OC(F)F)cc3n2C2CCC2)nc1)C(F)(F)F [compound 738, 6-[3-cyano-1-cyclobutyl-6-(difluoromethoxy)-5-fluoro-1H-indol-2-yl]-N-[(2S)-1,1,1-trifluorobutan-2-yl]pyridine-3-sulfonamide]",< 500 nM,166 to 173 °C
"CNC(=O)c1c(-c2ccc(S(=O)(=O)NC(C)(C)C)cn2)n(C2CCCC2)c2cc(C)c(F)cc12 [compound 799, 2-[5-(tert-butylsulfamoyl)pyridin-2-yl]-1-cyclopentyl-5-fluoro-N,6-dimethyl-1H-indole-3-carboxamide]",< 500 nM,248 to 250 °C
"C[C@H](NS(=O)(=O)c1ccc(-c2c(C#N)c3c(F)cc(OC(F)F)cc3n2C2CCC2)nc1)C(F)(F)F [compound 797, 6-[3-cyano-1-cyclobutyl-6-(difluoromethoxy)-4-fluoro-1H-indol-2-yl]-N-[(2S)-1,1,1-trifluoropropan-2-yl]pyridine-3-sulfonamide]",< 500 nM,210 to 212 °C
"Cc1ccc2c(C#N)c(-c3ccc(S(=O)(=O)NC(CF)CF)cn3)n(C3CCC3)c2c1F [compound 422, 6-(3-cyano-1-cyclobutyl-7-fluoro-6-methyl-1H-indol-2-yl)-N-(1,3-difluoropropan-2-yl)pyridine-3-sulfonamide]",< 500 nM,186 to 201 °C
"Cc1cc2c(cc1F)c(C(N)=O)c(-c1ccc(S(=O)(=O)N[C@@H](C)C(F)(F)F)cn1)n2C1CCCCC1 [compound 706, 1-cyclohexyl-5-fluoro-6-methyl-2-(5-{[(2S)-1,1,1-trifluoropropan-2-yl]sulfamoyl}pyridin-2-yl)-1H-indole-3-carboxamide]",< 500 nM,273 to 279 °C
"N#Cc1c(-c2ccc(S(=O)(=O)NC(CF)CF)cn2)n(C2CCCC2)c2cc(CC(F)F)ccc12 [compound 593, 6-[3-cyano-1-cyclopentyl-6-(2,2-difluoroethyl)-1H-indol-2-yl]-N-(1,3-difluoropropan-2-yl)pyridine-3-sulfonamide]",< 500 nM,178 to 184 °C
"Cc1ccc2c(C#N)c(-c3ncc(S(=O)(=O)NC(C)C)cn3)n(C(C)C)c2c1 [compound 167, 2-[3-cyano-6-methyl-1-(propan-2-yl)-1H-indol-2-yl]-N-(propan-2-yl)pyrimidine-5-sulfonamide]",< 500 nM,205 to 206 °C
"Cc1cc2c(cc1F)c(C(N)=O)c(-c1ccc(S(=O)(=O)N[C@@H](C)C(F)(F)F)cn1)n2-c1cccc(F)n1 [compound 877, 5-fluoro-1-(6-fluoropyridin-2-yl)-6-methyl-2-(5-{[(2S)-1,1,1-trifluoropropan-2-yl]sulfamoyl}pyridin-2-yl)-1H-indole-3-carboxamide]",< 500 nM,210 to 214 °C
"CC(C)(C)S(=O)(=O)Nc1ccc(-c2c(C#N)c3cc(F)c(C4CC4)cc3n2-c2ccccc2)cn1 [compound 1101, N-[5-(3-cyano-6-cyclopropyl-5-fluoro-1-phenyl-1H-indol-2-yl)pyridin-2-yl]-2-methylpropane-2-sulfonamide]",500 to 2000 nM,249 to 250 °C
"C[C@H](NS(=O)(=O)c1cnc(-c2c(C#N)c3ccc(OC(F)F)cc3n2C2CCCCC2)nc1)C1CC1 [compound 471, 2-[3-cyano-1-cyclohexyl-6-(difluoromethoxy)-1H-indol-2-yl]-N-[(1S)-1-cyclopropylethyl]pyrimidine-5-sulfonamide]",< 500 nM,150 to 152 °C
"Cc1ccc2c(C#N)c(-c3ccc(S(=O)(=O)NC(CF)CF)cn3)n(-c3ccccn3)c2c1 [compound 248, 6-[3-cyano-6-methyl-1-(pyridin-2-yl)-1H-indol-2-yl]-N-(1,3-difluoropropan-2-yl)pyridine-3-sulfonamide]",< 500 nM,159 to 162 °C
"C[C@@H](NS(=O)(=O)c1ccc(-c2c(C#N)c3cc(F)ccc3n2C2CCC2)nc1)C(F)(F)F [compound 219, 6-(3-cyano-1-cyclobutyl-5-fluoro-1H-indol-2-yl)-N-[(2R)-1,1,1-trifluoropropan-2-yl]pyridine-3-sulfonamide]",< 500 nM,109 to 110 °C
"CCc1cc2c(cc1F)c(C(N)=O)c(-c1cnc(NS(=O)(=O)C(C)(C)C)nc1)n2C1CCCCC1 [compound 1036, 2-{2-[(tert-butylsulfonyl)amino]pyrimidin-5-yl}-1-cyclohexyl-6-ethyl-5-fluoro-1H-indole-3-carboxamide]",2000 to 5000 nM,> 300 °C
"N#Cc1c(-c2ncc(S(=O)(=O)NC(CF)CF)cn2)n(C2CCC2)c2ccc(F)cc12 [compound 452, 2-(3-cyano-1-cyclobutyl-5-fluoro-1H-indol-2-yl)-N-(1,3-difluoropropan-2-yl)pyrimidine-5-sulfonamide]",< 500 nM,175 to 180 °C
"CCc1cc2c(cc1F)c(C#N)c(-c1ccc(S(=O)(=O)N[C@@H](C)C(F)(F)F)c(C)n1)n2-c1ccccn1 [compound 887, 6-[3-cyano-6-ethyl-5-fluoro-1-(pyridin-2-yl)-1H-indol-2-yl]-2-methyl-N-[(2S)-1,1,1-trifluoropropan-2-yl]pyridine-3-sulfonamide]",< 500 nM,219 to 224 °C
"Cc1ccc2c(C#N)c(-c3ncc(S(=O)(=O)NC(C)C)cn3)n(C3CCCCC3)c2c1 [compound 98, 2-(3-cyano-1-cyclohexyl-6-methyl-1H-indol-2-yl)-N-(propan-2-yl)pyrimidine-5-sulfonamide]",< 500 nM,196 to 201 °C
"CC(C)c1ccc2c(C#N)c(-c3ccc(S(=O)(=O)NC(CF)CF)cn3)n(C3CCCC3)c2c1 [compound 457, 6-[3-cyano-1-cyclopentyl-6-(propan-2-yl)-1H-indol-2-yl]-N-(1,3-difluoropropan-2-yl)pyridine-3-sulfonamide]",< 500 nM,163 to 172 °C
"CC1(NS(=O)(=O)c2ccc(-c3c(C#N)c4cc(Cl)c(OC(F)F)cc4n3C3CCC3)nc2)CC1 [compound 658, 6-[5-chloro-3-cyano-1-cyclobutyl-6-(difluoromethoxy)-1H-indol-2-yl]-N-(1-methylcyclopropyl)pyridine-3-sulfonamide]",< 500 nM,218 to 226 °C
"COc1ccc2c(C#N)c(-c3ncc(S(=O)(=O)NC(CF)CF)cn3)n(C3CCC3)c2c1 [compound 230, 2-(3-cyano-1-cyclobutyl-6-methoxy-1H-indol-2-yl)-N-(1,3-difluoropropan-2-yl)pyrimidine-5-sulfonamide]",< 500 nM,217 to 219 °C
"Cc1cc2c(cc1F)c(C(=O)N(C)C)c(-c1ccc(S(=O)(=O)N[C@@H](C)C(F)(F)F)cn1)n2C1CCCC1 [compound 783, 1-cyclopentyl-5-fluoro-N,N,6-trimethyl-2-(5-{[(2S)-1,1,1-trifluoropropan-2-yl]sulfamoyl}pyridin-2-yl)-1H-indole-3-carboxamide]",2000 to 5000 nM,278 to 280 °C
"CCc1cc2c(cc1F)c(C#N)c(-c1ccc(S(=O)(=O)N[C@@H](C)C(F)(F)F)cn1)n2-c1cccc(C(F)(F)F)c1 [compound 1011, 6-{3-cyano-6-ethyl-5-fluoro-1-[3-(trifluoromethyl)phenyl]-1H-indol-2-yl}-N-[(2S)-1,1,1-trifluoropropan-2-yl]pyridine-3-sulfonamide]",500 to 2000 nM,240 to 245 °C
"CC(C)Oc1ccc2c(C#N)c(-c3ccc(NS(=O)(=O)C4CC4)nn3)n(C3CCC3)c2c1 [compound 274, N-{6-[3-cyano-1-cyclobutyl-6-(propan-2-yloxy)-1H-indol-2-yl]pyridazin-3-yl}cyclopropanesulfonamide]",2000 to 5000 nM,175 to 177 °C
"COc1ccc2c(c1)c(C#N)c(-c1ncc(S(=O)(=O)NC(CF)CF)cn1)n2C1CCCC1 [compound 572, 2-(3-cyano-1-cyclopentyl-5-methoxy-1H-indol-2-yl)-N-(1,3-difluoropropan-2-yl)pyrimidine-5-sulfonamide]",< 500 nM,200 to 202 °C
"CC(C)NS(=O)(=O)c1cnc(-c2c(C#N)c3ccc(OC(F)F)cc3n2C(C)C)nc1 [compound 171, 2-[3-cyano-6-(difluoromethoxy)-1-(propan-2-yl)-1H-indol-2-yl]-N-(propan-2-yl)pyrimidine-5-sulfonamide]",< 500 nM,193 to 196 °C
"CCCn1c(-c2ncc(S(=O)(=O)N[C@@H](C)C3CC3)cn2)c(C#N)c2ccc(OC(F)F)cc21 [compound 208, 2-[3-cyano-6-(difluoromethoxy)-1-propyl-1H-indol-2-yl]-N-[(1S)-1-cyclopropylethyl]pyrimidine-5-sulfonamide]",< 500 nM,152 to 154 °C
